Test results: the supplement of paper PMC10307832

Compound: CC1CC(=O)N(C2=CN=C(N=C2N1C3CCCC3)NC4=C(C=C(C=C4)C(=O)NC5CCN(CC5)C)OC)C [NPK76-II-72-1] + C[C@]1(O)C[C@@H](c2nc(-c3ccc4ccc(-c5ccccc5)nc4c3)c3c(N)nccn32)C1 [Linsitinib] (partner 1 µM)
Test: relative viability (nuclei count vs DMSO), 5 days (fraction); higher = more cells survive
Conditions: first compound 0.01 µM
In short: (§1)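 Relative viability is defined as nuclei in treated wells over nuclei in vehicle wells. Duplicate plates were run and medians reported. Lung cancer cell lines in 1536-well plates were dosed by pin tool one day after seeding, with one drug or with a fixed anchor-drug dose plus five library-drug doses (not always all listed) in √10 steps, and nuclei were counted after 5 days.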

Cell Line	relative viability
NCI-H727	0.233
EBC-1	0.853
NCI-H1703	0.428
NCI-H1993	0.728
SW 1573	0.808
LCLC-103H	1.04
Calu-6	0.981
IA-LM	0.582
A549	0.516
NCI-H441	0.479
NCI-H1395	1.08
NCI-H1299	0.999
NCI-H1793	0.771

Same assay, conditions: first compound 0.03162 µM

Cell Line	relative viability
NCI-H727	0.259
EBC-1	0.858
NCI-H1703	0.65
NCI-H1993	0.768
SW 1573	0.794
LCLC-103H	1.16
Calu-6	0.912
IA-LM	0.684
A549	0.651
NCI-H441	0.696
NCI-H1395	1.17
NCI-H1299	0.96
NCI-H1793	0.962

Same assay, conditions: first compound 0.1 µM

Cell Line	relative viability
NCI-H727	0.27
EBC-1	0.886
NCI-H1703	0.621
NCI-H1993	0.576
SW 1573	0.721
LCLC-103H	1.02
Calu-6	0.897
IA-LM	0.435
A549	0.538
NCI-H441	0.492
NCI-H1395	1.22
NCI-H1299	1.01
NCI-H1793	0.971

Same assay, conditions: first compound 0.3162 µM

Cell Line	relative viability
NCI-H727	0.287
EBC-1	0.922
NCI-H1703	0.645
NCI-H1993	0.657
SW 1573	0.728
LCLC-103H	1.03
Calu-6	0.948
IA-LM	0.597
A549	0.417
NCI-H441	0.265
NCI-H1395	1.13
NCI-H1299	0.98
NCI-H1793	0.495

Same assay, conditions: first compound 1 µM

Cell Line	relative viability
NCI-H727	0.331
EBC-1	1.13
NCI-H1703	0.996
NCI-H1993	0.778
SW 1573	0.681
LCLC-103H	1.01
Calu-6	0.946
IA-LM	0.809
A549	0.54
NCI-H441	0.65
NCI-H1395	1.22
NCI-H1299	1.03
NCI-H1793	0.742

Compound: CC1CC(=O)N(C2=CN=C(N=C2N1C3CCCC3)NC4=C(C=C(C=C4)C(=O)NC5CCN(CC5)C)OC)C [NPK76-II-72-1] + CS(=O)(=O)CCNCc1ccc(-c2ccc3ncnc(Nc4ccc(OCc5cccc(F)c5)c(Cl)c4)c3c2)o1 [Lapatinib] (partner 2 µM)
Test: as above
Conditions: first compound 0.01 µM
In short: as §1

Cell Line	relative viability
NCI-H727	0.97
NCI-H1650	0.859
EBC-1	0.193
NCI-H1703	1.16
NCI-H1993	0.729
SW 1573	1.03
Calu-6	1.01
IA-LM	0.786
NCI-H2170	0.267
A549	0.881
NCI-H1395	1.1
NCI-H1299	0.949
NCI-H1793	0.64

Same assay, conditions: first compound 0.03162 µM

Cell Line	relative viability
NCI-H727	1.04
NCI-H1650	0.756
EBC-1	0.182
NCI-H1703	1.2
NCI-H1993	0.92
SW 1573	1.09
Calu-6	1.12
IA-LM	0.877
NCI-H2170	0.286
A549	1.11
NCI-H1395	1.11
NCI-H1299	1.01
NCI-H1793	0.91

Same assay, conditions: first compound 0.1 µM

Cell Line	relative viability
NCI-H727	0.81
NCI-H1650	0.912
EBC-1	0.218
NCI-H1703	1.21
NCI-H1993	0.906
SW 1573	1.04
Calu-6	1.08
IA-LM	0.804
NCI-H2170	0.257
A549	0.963
NCI-H1395	1.09
NCI-H1299	0.957
NCI-H1793	0.823

Same assay, conditions: first compound 0.3162 µM

Cell Line	relative viability
NCI-H727	0.979
NCI-H1650	0.835
EBC-1	0.229
NCI-H1703	1.05
NCI-H1993	0.822
SW 1573	1
Calu-6	1.03
IA-LM	0.785
A549	0.869
NCI-H1395	1.03
NCI-H1299	0.961
NCI-H1793	0.503

Same assay, conditions: first compound 1 µM

Cell Line	relative viability
NCI-H727	0.884
NCI-H1650	0.86
EBC-1	0.218
NCI-H1703	1.2
NCI-H1993	0.788
SW 1573	1.16
Calu-6	1.17
IA-LM	1.03
NCI-H2170	0.268
A549	1.07
NCI-H1395	1.07
NCI-H1299	0.954
NCI-H1793	0.751

Compound: CC[C@@H]1C(=O)N(C)c2cnc(Nc3ccc(C(=O)NC4CCN(C)CC4)cc3OC)nc2N1C1CCCC1 [BI-2536] + COc1cccc2cc(-c3nc([C@H]4CC[C@H](C(=O)O)CC4)n4ncnc(N)c34)[nH]c12 [OSI-027] (partner 0.5 µM)
Test: as above
Conditions: first compound 0.01 µM
In short: as §1

Cell Line	relative viability
NCI-H522	0.752
NCI-H1623	0.433
NCI-H727	0.597
NCI-H1650	0.636
NCI-H1993	0.521
SW 1573	0.681
LCLC-103H	0.462
NCI-H2342	0.664
ChaGo-K-1	0.661
NCI-H2170	0.762
SW 900	0.6
NCI-H1648	0.258
NCI-H441	0.449
NCI-H1395	0.617
NCI-H1793	0.271

Same assay, conditions: first compound 0.03162 µM

Cell Line	relative viability
NCI-H522	0.72
NCI-H1623	0.392
NCI-H727	0.471
NCI-H1650	0.564
NCI-H1993	0.481
SW 1573	0.44
LCLC-103H	0.466
NCI-H2342	0.546
ChaGo-K-1	0.577
NCI-H2170	0.757
SW 900	0.427
NCI-H1648	0.25
NCI-H441	0.42
NCI-H1395	0.64
NCI-H1793	0.256

Same assay, conditions: first compound 0.1 µM

Cell Line	relative viability
NCI-H522	0.445
NCI-H1623	0.39
NCI-H727	0.499
NCI-H1650	0.169
NCI-H1993	0.519
SW 1573	0.133
LCLC-103H	0.485
NCI-H2342	0.598
ChaGo-K-1	0.253
NCI-H2170	0.285
SW 900	0.456
NCI-H1648	0.233
NCI-H441	0.222
NCI-H1395	0.313
NCI-H1793	0.143

Same assay, conditions: first compound 0.3162 µM

Cell Line	relative viability
NCI-H522	0.399
NCI-H1623	0.233
NCI-H727	0.334
NCI-H1650	0.18
NCI-H1993	0.484
SW 1573	0.0966
LCLC-103H	0.215
NCI-H2342	0.362
ChaGo-K-1	0.136
NCI-H2170	0.172
SW 900	0.129
NCI-H1648	0.203
NCI-H441	0.226
NCI-H1395	0.306
NCI-H1793	0.157

Same assay, conditions: first compound 1 µM

Cell Line	relative viability
NCI-H522	0.372
NCI-H1623	0.294
NCI-H727	0.338
NCI-H1650	0.159
NCI-H1993	0.453
SW 1573	0.0839
LCLC-103H	0.155
NCI-H2342	0.367
ChaGo-K-1	0.155
NCI-H2170	0.209
SW 900	0.132
NCI-H1648	0.24
NCI-H441	0.266
NCI-H1395	0.386
NCI-H1793	0.136

Compound: CC1CC(=O)N(C2=CN=C(N=C2N1C3CCCC3)NC4=C(C=C(C=C4)C(=O)NC5CCN(CC5)C)OC)C [NPK76-II-72-1] + C[C@@H](Oc1cc(-c2cnn(C3CCNCC3)c2)cnc1N)c1c(Cl)ccc(F)c1Cl [Crizotinib] (partner 1 µM)
Test: as above
Conditions: first compound 0.01 µM
In short: as §1

Cell Line	relative viability
NCI-H727	0.703
NCI-H1650	1.01
EBC-1	0.178
NCI-H1703	0.525
NCI-H1993	0.912
SW 1573	0.637
LCLC-103H	0.919
Calu-6	0.757
IA-LM	0.704
ChaGo-K-1	1.11
NCI-H2170	1.08
A549	0.704
NCI-H441	0.928
NCI-H1299	0.921

Same assay, conditions: first compound 0.03162 µM

Cell Line	relative viability
NCI-H727	0.768
NCI-H1650	1.07
EBC-1	0.21
NCI-H1703	0.754
NCI-H1993	0.839
SW 1573	0.891
LCLC-103H	0.962
Calu-6	0.784
IA-LM	0.818
ChaGo-K-1	1.18
NCI-H2170	1.18
A549	0.798
NCI-H441	0.692
NCI-H1299	0.911

Same assay, conditions: first compound 0.1 µM

Cell Line	relative viability
NCI-H727	0.906
NCI-H1650	0.861
EBC-1	0.19
NCI-H1703	0.774
NCI-H1993	0.791
SW 1573	0.77
LCLC-103H	1.04
Calu-6	0.763
IA-LM	0.727
ChaGo-K-1	1.11
NCI-H2170	1.11
A549	0.775
NCI-H441	0.505
NCI-H1299	0.984

Same assay, conditions: first compound 0.3162 µM

Cell Line	relative viability
NCI-H727	0.668
NCI-H1650	0.917
EBC-1	0.214
NCI-H1703	0.641
NCI-H1993	0.722
SW 1573	0.686
LCLC-103H	0.916
Calu-6	0.713
IA-LM	0.616
ChaGo-K-1	1.12
A549	0.803
NCI-H441	0.7
NCI-H1299	0.932

Same assay, conditions: first compound 1 µM

Cell Line	relative viability
NCI-H727	0.889
NCI-H1650	1.11
EBC-1	0.184
NCI-H1703	0.628
NCI-H1993	0.977
SW 1573	0.912
LCLC-103H	1.18
Calu-6	0.861
IA-LM	0.989
ChaGo-K-1	1.19
NCI-H2170	1.3
A549	0.8
NCI-H441	0.699
NCI-H1299	0.919
